Like-named read-outs stand apart in the source and are kept apart here.
Legend:
[1] = system: guinea-pig tracheal ring preparations; experiment: Bronchospasmolytic activity in vitro, isolated guinea-pig trachea; assay type: cell-based; settings: for IC50: guinea-pig tracheal rings, one series of tests
Protocol: The trachea is excised from freshly sacrificed guinea-pigs and transected in the transverse plane to give rings of tissue of ca. 2 mm. Individual rings are mounted vertically on stainless steel supports, one of which is fixed at the base of an organ bath, the other being attached to a tension transducer. The rings are bathed in modified Tyrode solution at 37°C and gassed with O2/CO2 (95:5, v/v). Rings prepared in this manner, preloaded with 1 g, generate spontaneous tone and, after a period of equilibration, relax on addition of spasmolytic drugs. Tension can be enhanced by addition of carbachol (10-^6M) or histamine (10-^4M). To ascertain spasmolytic activity, test substances are dissolved in physiological saline and added in increasing quantities to the organ bath at 5 min. intervals to provide a cumulative concentration-effect curve.

Guinea pigs [2] = experiment: Inhibition of bronchospasm in vivo (Konzett-Rossler preparation); settings: dosages of the order of 1 mg/kg via jugular vein immediately before PAF, acetylcholine, histamine, serotonin, substance P or leukotriene C4
Protocol: (§1) Guinea pigs are anaesthetised with pentobarbital (30 mg/kg i.p.) and phenobarbital (100 mg/kg i.p.) and ventilated via a tracheal cannula (10 ml/kg, lHz). Ventilation is monitored either by a pressure transducer measuring air-flow (Konzett-Rossler method), or by a Fleisch flow transducer in line with the inspiratory circuit. When making measurements of flow, coincident pressure changes in the thorax are monitored directly via an intrathoracic trochar, permitting display of differential pressure relative to the trachea. From this information resistance and compliance are calculated at each inspiration. Test substance is, administered via an indwelling cannula within a jugular vein. Blood pressure is monitored at the carotid artery. Test substance is administered immediately before injection of a bronchoconstrictor agent - PAF (56 ng/kg), acetylcholine (32 µg/kg), histamine(10 µg/kg), serotonin (10 µg/kg), substance P ([…]) or leukotriene C4 (5 µg/kg).

Guinea-pigs [3] = experiment: Reversal of bombesin-induced bronchospasm in vivo; settings: i.v. at the height of bronchospasm induced by bombesin (ca. 500 ng/kg); one series of tests; of the order of
Protocol: as §1
Guinea-pigs are prepared for measurement of resistance and compliance as under lb^l above. Intravenous injection of bombes in (ca. 500 ng/kg) as a bolus, induces increased airways resistance which is sustained over a period of several minutes. Capacity of test-substance to reverse response when administered i.v. at the height of bombesin-induced bronchospasm serves as a measure of efficacy in reversing established bronchospasm.

Conscious guinea-pigs = experiment: Inhibition of acetylcholine-mist bronchoconstriction following pulmonary administration; assay type: in vivo; settings: inhalation of mist 10 mins. prior to 0.3% mist of acetylcholine
Protocol: Conscious guinea-pigs are subjected to inhalation of COMPOUND or placebo (vehicle) 10 mins. prior to explosure to a 0.3% mist of acetylcholine. COMPOUND is administered as a mist generated from COMPOUND in aqueous solution at concentrations of from 1 mg/ml to 0.001 mg/ml, using a jet nebuliser. Prolongation of time prior to collapse in treated groups as compared with placebo groups is taken as a measure of bronchodilator efficacy.

Guinea pigs [4] = experiment: Suppression of airways hyperreactivity, sensitised animals (immune complexes); assay type: in vivo
Text: Guinea pigs are anaesthetised and airways resistance and compliance recorded as described under example lb^l above. […] Platelets are isolated and labelled with ^lllindium prior to intravenous infusion. Platelet accumulation is monitored by external crystal detectors [c.f. Morley et al. […] Allergic reaction is initiated by i.v. injection of preformed immune complexes (bovine y-globulin/ anti-bovine y-globulin), using a dose that is scarcely sufficient to induce bronchospasm at the first injection. By repeating the dose at regular (10 min.) intervals, bronchospasm of progressively increasing amplitude is evidenced. This effect is paralleled by an incremental retention of platelets within the airway vasculature. Following the last dose of immune complexes, the dose-effect relationship to histamine is re-defined. In animals so treated, induction of airways hyperreactivity is consistently observed.

Guinea-pigs [5] = experiment: Suppression of airways hyperreactivity, PAF-treated animals; assay type: in vivo
Protocol: Guinea-pigs are anaesthetised and prepared for recording of lung function as described under example lb^l above. Intravenous injection of low dose bombesin (240 ng/kg) establishes airways sensitivity to spasmogens. Following infusion of PAF over lhr. […] Induction of airways hyperreactivity by PAF is a platelet-dependent phenomenon and development of. airways hyperreactivity in this model in paralleled by observed accumulation of platelets within the thorax.

[6] = system: guinea-pig peritoneal cavity; experiment: Influence on eosinophil accumulation in the peritoneal cavity in vivo
Protocol: Effect of test-substance is conveniently determined by measurement of influence on PAF-induced eosinophil accumulation in the guinea-pig peritoneal cavity in vivo. In the guinea-pig, there is a substantial (up to 40%) resident population of eosinophils in the peritoneal cavity and eosinophil accumulation in the peritoneal cavity relative to control animals ca. 24 - 48 hrs. following injection of PAF i.p. at dosages of ca. 10µg/kg.
To esablish eosinophil accumulation, test animals receive 10µg/kg PAF i.p., 2 days prior to sacrifice. Smears from the peritoneal cavity are prepared employing Leishman's Stain after fixation with 95% methanol. At least 500 white cells are differentiated for each estimation. Test substance is administered s.c. via a minipump for four days prior to sacrifice.

rats = experiment: 30-week oral administration toxicity, rats; assay type: in vivo
Protocol: (§2) 30-week oral administration of (±)-COMPOUND to rats and dogs indicate no toxicity at dosages up to 272 mg/kg/day in rats and up to 10 mg/kg/day in dogs. (±)-COMPOUND is found to have no embryolethal or teratogenic actions in the rat at dosages up to 300 mg/kg and in the rabbit at dosages up to 30 mg/kg.

dogs = experiment: 30-week oral administration toxicity, dogs; assay type: in vivo
Protocol: as §2

rat = experiment: Embryolethal or teratogenic actions, rat; assay type: in vivo
Protocol: as §2

rabbit = experiment: Embryolethal or teratogenic actions, rabbit; assay type: in vivo
Protocol: as §2

healthy trial volunteers = experiment: Tolerability and safety in healthy trial volunteers; assay type: in vivo, humans
[7] = system: subjects exhibiting heart insufficiency; experiment: Tolerability and safety in subjects exhibiting heart insufficiency; assay type: in vivo, humans
[8] = intravenous dosages of up to 100 mg by perfusion over 10 mins.

SMILES: COc1cc2c(cc1OC)[C@@H]1CN(C)CC[C@@H]1N=C2c1ccc(NC(C)=O)cc1 (racemic) [(±)-COMPOUND, cis-6-(4-acetanilido)-8,9-dimethoxy-2-methyl-1,2,3,4,4a,10b-hexahydrobenzo[c][1,6]naphthyridin]
- relaxant action on tracheal rings from animals desensitised to β2-agonist therapy ([1]; animals with prolonged exposure to high-dose isoprenaline in vivo): not influenced
- IC50 ([1]; carbachol (10-^6M), read-out: IC50 values for inhibition of contraction due to carbachol): 5.8 µM
- IC50 ([1]; histamine (10-^4M), read-out: IC50 values for inhibition of contraction due to histamine): 1.7 µM
- IC50 ([1]; spontaneous tone, read-out: IC50 values for inhibition of spontaneous tone): 3.2 µM
- relaxant action in the presence of propanolol ([1]; propanolol (1 uM)): undiminished
- constrictor response to bronchoconstrictor agents (Guinea pigs [2]): strongly inhibits
- ID50 values, abrogation of bombesin-induced bronchospasm (Guinea-pigs [3]): 0.08 to 0.48 mg/kg
- amount introduced into the exposure chamber giving detectable protection against bronchospasm (Conscious guinea-pigs): ≥ 2 µg
- dosage giving suppression of induced airways resistance (Guinea pigs [4]; advance administration i.v., ca., compared with untreated controls): ≥ 1 mg/kg
- effective dose, inhibition of airways hyperreactivity (Guinea pigs [4]; one test series): 0.35 mg/kg
- thoracic platelet accumulation in response to PAF (Guinea-pigs [5]; 1 mg/kg bolus and infusion at 1 mg/kg/hr i.v.): inhibited
- dosage giving suppression of airways hyperreactivity induction (Guinea-pigs [5]; advance administration i.v., ca., PAF infusion 600 ng/kg, bombesin 240 ng/kg): ≥ 0.1 mg/kg
- ID50, suppression of airways hyperreactivity induction (Guinea-pigs [5]; i.v., one series of tests, of the order of): ~1 mg/kg
- PAF-induced eosinophil accumulation ([6]; of the order of 2 mg/kg/day s.c. via minipump for four days, animals receiving 10µg/kg PAF i.p.): inhibition of eosinophil accumulation
- resident eosinophil population ([6]; of the order of 10 mg/kg/day s.c. via minipump for four days, non-PAF-treated animals, vs untreated controls): decrease
- dosages with no toxicity (rats): up to 272 mg/kg/day
- dosages with no toxicity (dogs): up to 10 mg/kg/day
- dosages with no embryolethal or teratogenic actions (rat): up to 300 mg/kg
- dosages with no embryolethal or teratogenic actions (rabbit): up to 30 mg/kg
- tolerability (healthy trial volunteers; 600 mg once daily for 3 days (6 subjects)): well tolerated
- single oral dosages with no occurrence of side effects or relevant changes in laboratory parameters (healthy trial volunteers; healthy trial volunteers (27 subjects)): up to 800 mg
- arterial pressure [7, 8]: light fall
- heart frequency [7, 8]: increase
- intravenous dosages well tolerated ([7]; perfusion over 10 mins., subjects exhibiting heart insufficiency): up to 100 mg
- systolic blood-pressure ([7]; placebo controlled trials, after 60 mins.): light increase
- heart frequency ([7]; placebo controlled trials, oral): no relevant change
- oral dosages with no significant side effects, well tolerated ([7]; subjects exhibiting heart insufficiency, oral): up to 600 mg

From patent EP0247971A2, “Novel pharmaceutical compositions comprising and use of cis-6-(4-acetanilido)-8,9-dimethoxy-2-methyl-1,2,3,4,4a,10b-hexahydrobenzo[c][1,6]naphthyridin” (SANDOZ AG, priority 1986, dated 1987)
